Reference: US8022104B2 (priority 2005, dated 2011)
Where “and” joins values, the source holds several entries; their conditions need not be identical. Equal values may be shown once. Read-outs that look alike come from different tables or passages of the source.

Tests used:
[1] = Pharmacokinetic analysis in Alzheimer's disease patients; format: in vivo, human
Description: Pharmacokinetic analysis was performed on Week 4 (maintenance analysis) and on Week 9 (termination analysis). At maintenance analysis (M), samples were collected pre-dose and at 0.25, 0.5, 1, 2, and 3 hours post-dose. At termination analysis (T), samples were collected pre-dose and at 0.25, 0.5, 1, 2, 3, 4, 6, and […].
The concentration measurements are expressed in nmol/ml and the t1/2 is expressed in terms of hours.

[2] = Bulk and tapped density of ladostigil tartrate crystals; format: physicochemical; conditions: crystals from the alternative isopropanol process
Text: This alternative process, which can be performed without the seeding step, is better suited for use in a pilot scale and a production scale than a method that follows PCT Application Publication No. WO98/27055.

[3] = tested on: Cholinesterase; test: Cholinesterase inhibition at pre-dose in patients; format: in vivo, human; conditions: pre-dose administration, at maintenance and at termination analyses
Text: Cholinesterase inhibition at pre-dose administration both at maintenance and at termination analyses was also evident.

[4] = tested on: 3,4-dihydroxyphenylglycol (DHPG) in plasma; test: Decrease of DHPG plasma concentration in patients, HPLC with electrochemical detector; format: in vivo, human
Description: Decrease of 3,4-dihydroxyphenylglycol (“DHPG”) in plasma is indicative of monoamine oxidase inhibition, especially in the brain. DHPG plasma concentrations were measured in 6 of the aforementioned patients at baseline and at termination analysis, using HPLC equipped with an electrochemical detector.
The decrease in DHPG concentration in the six patients was determined. The average decrease in DHPG concentration was determined to be 57% with a standard deviation of 29.

[5] = Wet granulation experiments: compatibility with water and ethanol; format: physicochemical
Description: The manufacturing process was changed from the dry granulation process to a wet-granulation process as a result of the flow problem with the active ingredient. Water and ethanol are the two most common agents used in wet granulation. Granulation experiments were first performed with water. […] Therefore, granulation experiments based on the CC formulation were performed with isopropanol.

R(+)-6-(N-methyl, N-ethyl-carbamoyloxy)-N′-propargyl-1-aminoindan [Ladostigil Tartrate]
t1/2 ([1]; half life at termination analysis Week 9): 1.08 h
AUC ladostigil (M) ([1]; individual patients 1-8, maintenance analysis Week 4, 100 mg twice daily, tablets of Table 9): 314 ng·h/mL and 589 ng·h/mL and 1005 ng·h/mL and 927 ng·h/mL and 436 ng·h/mL and 551 ng·h/mL and 52 ng·h/mL and 500 ng·h/mL
AUC ladostigil (T) ([1]; individual patients 1-8, termination analysis Week 9, 100 mg twice daily, tablets of Table 9): 246 ng·h/mL and 2305 ng·h/mL and 1449 ng·h/mL and 482 ng·h/mL and 398 ng·h/mL and 901 ng·h/mL and 118 ng·h/mL and 350 ng·h/mL
Cmax ([1]; individual patients 1-8, termination analysis Week 9, 100 mg twice daily, read-out: Cmax ladostigil (T)): 700 nM and 3800 nM and 3900 nM and 1600 nM and 1000 nM and 2500 nM and 400 nM and 1300 nM
Cmax ([1]; mean after dosing, maintenance analysis Week 4, read-out: Cmax): 2020 nM
Cmax ([1]; mean after dosing, termination analysis Week 9, read-out: Cmax (T)): 1880 nM
Cmin (M) ([1]; mean concentration at pre-dose (12 hours after previous dose), maintenance analysis Week 4): 1.64e-08 M
Cmin (T) ([1]; mean concentration at pre-dose (12 hours after previous dose), termination analysis Week 9): 10.9 nM
bulk density [2]: 0.22 to 0.29 g/mL
tapped density [2]: 0.38 to 0.54 g/mL
Cholinesterase inhibition [3]: evident
DHPG (T) (%) ([4]; individual patients, termination analysis Week 9 versus baseline): −63% and −86% and >−79% and −73% and −30% and −13%
average decrease in DHPG concentration ([4]; six patients, termination analysis, standard deviation of 29): 57%
Compatibility with ethanol ([5]; wet granulation agent): incompatible with ethanol
Stability in the presence of water ([5]; wet granulation with water): unstable in the presence of water
